Measurements published in patent US20030224422A1, “Pre-and post therapy gene expression profiling to identify drug targets” (St. Jude Children's Research Hospital, Inc., priority 2002, published 2003).

System: bone marrow leukemic blasts obtained from children with ALL
Assay: Oligonucleotide microarray (Affymetrix HG-U95A) fold-change in gene expression, post-treatment vs diagnosis, in patients in vivo
Set-up: species or system human
Conditions: for number of genes that were down-regulated after single agent / number of genes that were up-regulated (increased) after single agent: changed by >50% in over 70% of patients; for number of genes that changed expression by at least 50%: in over 70% of patients treated
Method: To elucidate genomic determinants of leukemia response to chemotherapy, oligonucleotide microarrays (Affymetrix® HG-U95A GeneChip) were used to analyze expression of approximately 9,600 human genes in bone marrow leukemic blasts obtained from children with ALL, at diagnosis and one day post-treatment with mercaptopurine (1 gm/^2 IV) or methotrexate (MTX) given alone (1 gm/m^2 IV), or mercaptopurine (6-MP) in combination with either low-dose MTX [180 mg/m^2 orally] or high-dose MTX [[…]]). A stratified (immunophenotype, DNA ploidy) randomization was used to assign treatment, and the fold-change in gene expression (post-treatment to diagnosis) was computed for 60 patients. Using linear discriminate analysis with variance (LDAV) genes that most discriminated among treatments were selected based on expression changes (fold-change from diagnosis to post-treatment) or based on post-treatment expression levels alone. […] Leave-one-out cross-validation using support-vector-machine (SVM), based on the 120 most discriminating genes, correctly classified 60 out of 60 patients (100%) based on fold-change versus 58 out of 60 (96.7%) using only post-treatment expression profiles. The smallest number of genes for discrimination among treatments was 120 using fold-change, which included genes involved in cellular processes such as apoptosis, cell cycle control and stress response. Together, these in vivo data reveal unique, treatment-specific changes in gene expression in primary leukemia cells, establishing that changes in expression differ according to the specific medication, dosage and combination given. These findings provide new insights to cancer cell responses to chemotherapy and can be used to illuminate mechanisms of leukemia resistance and identify novel targets to augment existing treatment modalities.
Primary leukemia cells. This study included 60 patients with ALL enrolled on St. Jude Children's Research Hospital Total Therapy Studies XIIIB and XV. Bone marrow samples were obtained at diagnosis (pre-treatment) and one day post-treatment with mercaptopurine (6-MP) or methotrexate (MTX) given alone, or mercaptopurine in combination with either low-dose MTX (LDMTX/6-MP) or high-dose MTX (HDMTX/6-MP). A stratified (immunophenotype, DNA ploidy) randomization was used to assign treatment. Total RNA was extracted from cryopreserved mononuclear cell suspensions with TriReagent (MRC, Cincinnati, Ohio).
Mircoarray analysis. High quality RNA was hybridized to Affymetrix HG-U95A GeneChipe (12,600 probe sets, ˜9,600 human genes) according to the manufacturers protocol (Affymetrix, Santa Clara, Calif.). Scaled gene expression values for pre-treatment, post-treatment and fold-change (post-treatment vs. pre-treatment ratio) were calculated using Affymetrix Microarray Suite® (MAS) 5.0.
Gene expression data analysis. Analysis was done on fold-change and on post-treatment expression. The data were log-transformed and probe sets were filtered out if “absent” in all 120 arrays or if “no change” in all 60 fold-change ratios. Principal component analysis (PCA) and 2D-hierarchical clustering was performed using GeneMath 1.5 (AppliedMaths, Belgium). We applied supervised methods to find the most discriminating genes, including Linear Discriminant Analysis with Variance (LDAV) (GeneMaths) and ANOVA. Probe sets were ranked according to their discriminating power. To establish that these genes could classify treatments and to find significant genes, leave-one-out cross-validation was performed by support vector machine (SVM) with the top ranked probe sets. […] The p-value is defined as the probability of observing a misclassification rate less or equal to that in the experimental data. 250 permutations were performed. To distinguish one treatment from the other treatments, distinction calculation (Spotfire 6.3, Somerville, Mass.) was performed for each probe set. Permutations (n=1000) were performed to obtain the p-values. […]

CN(Cc1cnc2nc(N)nc(N)c2n1)c1ccc(C(=O)N[C@@H](CCC(=O)O)C(=O)O)cc1 [HDMTX, Methotrexate]
difference in gene expression between infusion for 24 h and infusion for 4 h (HDMTX 24 h vs 4 h infusion, data pooled): No difference
number of genes that were down-regulated after single agent: 59 genes
number of genes that were up-regulated (increased) after single agent: 38 genes
number of genes that changed expression by at least 50%: 97 genes

S=c1nc[nH]c2nc[nH]c12 [MP, Mercaptopurine]
number of genes that were down-regulated after single agent: 40 genes
number of genes that were up-regulated (increased) after single agent: 158 genes
number of genes that changed expression by at least 50%: 197 genes
